Measurements reported in patent US6525001B1, “Substituted pyrimidine and pyridine herbicides” (Mid-American Commercialization Corporation, priority 1997, dated 2003).

Assays:
Assay in all cases: Test B pre-/postemergence
Format in all cases: in vivo
Parameters in all cases: key: 0 is no effect; 10 is complete control
[1] = tested on: bedstraw (Galium aparine)
Method in brief: (§1)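 Compounds in a surfactant-containing, non-phytotoxic solvent blend are applied to freshly planted seed (preemergence) and, concurrently, to seedlings of 2 to 18 cm at 1–4 leaves (postemergence). Plants stay in the greenhouse twelve to sixteen days and are then scored visually from 0 (no effect) to 10 (complete control).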

[2] = tested on: blackgrass (Alopecurus myosuroides)
Method in brief: as §1

[3] = tested on: broadleaf signalgrass (Brachiaria decumbens)
Method in brief: as §1

[4] = tested on: cocklebur (Xanthium strumarium)
Method in brief: as §1

corn (Zea mays) = tested on: corn (Zea mays)
Method in brief: as §1

[5] = tested on: crabgrass (Digitaria sanguinalis)
Method in brief: as §1

[6] = tested on: giant foxtail (Setaria faberii)
Method in brief: as §1

[7] = tested on: momingglory (Ipomoea hederacea)
Method in brief: as §1

[8] = tested on: pigweed (Amaranthus retroflexus)
Method in brief: as §1

rape (Brassica napus) = tested on: rape (Brassica napus)
Method in brief: as §1

soybean (Glycine max) = tested on: soybean (Glycine max)
Method in brief: as §1

[9] = tested on: sugar beet (Beta vulgaris)
Method in brief: as §1

[10] = tested on: velvetleaf (Abutilon theophrasti)
Method in brief: as §1

[11] = tested on: wheat (Triticum aestivum)
Method in brief: as §1

Cc1cnc(-c2ccc(C(F)(F)F)cc2)nc1Cn1cc(I)cn1 [Compound 12]
Plant response rating, Bedstraw ([1]; Rate 62 g/ha, Postemergence): 7
Bedstraw plant response rating ([1]; Rate 62 g/ha, Preemergence): 2
Plant response rating, Bedstraw ([1]; Rate 125 g/ha, Postemergence): 9
Bedstraw plant response rating ([1]; Rate 125 g/ha, Preemergence): 4
Plant response rating, Bedstraw ([1]; Rate 250 g/ha, Postemergence): 10
Plant response rating, Bedstraw ([1]; Rate 250 g/ha, Preemergence): 4
Plant response rating, Bedstraw ([1]; Rate 500 g/ha, Postemergence): 10
Plant response rating, Bedstraw ([1]; Rate 500 g/ha, Preemergence): 8
Plant response rating, Blackgrass ([2]; Rate 62 g/ha, Postemergence): 2
Blackgrass plant response rating ([2]; Rate 62 g/ha, Preemergence): 1
Plant response rating, Blackgrass ([2]; Rate 125 g/ha, Postemergence): 3
Blackgrass plant response rating ([2]; Rate 125 g/ha, Preemergence): 4
Plant response rating, Blackgrass ([2]; Rate 250 g/ha, Postemergence): 4
Plant response rating, Blackgrass ([2]; Rate 250 g/ha, Preemergence): 6
Plant response rating, Blackgrass ([2]; Rate 500 g/ha, Postemergence): 4
Plant response rating, Blackgrass ([2]; Rate 500 g/ha, Preemergence): 6
Plant response rating, B. signalgrass ([3]; Rate 62 g/ha, Postemergence): 4
B. signalgrass plant response rating ([3]; Rate 62 g/ha, Preemergence): 3
Plant response rating, B. signalgrass ([3]; Rate 125 g/ha, Postemergence): 5
B. signalgrass plant response rating ([3]; Rate 125 g/ha, Preemergence): 8
Plant response rating, B. signalgrass ([3]; Rate 250 g/ha, Postemergence): 7
Plant response rating, B. signalgrass ([3]; Rate 250 g/ha, Preemergence): 8
Plant response rating, B. signalgrass ([3]; Rate 500 g/ha, Postemergence): 7
Plant response rating, B. signalgrass ([3]; Rate 500 g/ha, Preemergence): 9
Cocklebur plant response rating ([4]; Rate 62 g/ha, Preemergence): 0
Plant response rating, Cocklebur ([4]; Rate 125 g/ha, Postemergence): 8
Plant response rating, Cocklebur ([4]; Rate 250 g/ha, Postemergence): 8
Plant response rating, Cocklebur ([4]; Rate 250 g/ha, Preemergence): 2
Plant response rating, Cocklebur ([4]; Rate 500 g/ha, Postemergence): 8
Plant response rating, Cocklebur ([4]; Rate 500 g/ha, Preemergence): 3
Plant response rating, Corn (corn (Zea mays); Rate 62 g/ha, Postemergence): 2
Corn plant response rating (corn (Zea mays); Rate 62 g/ha, Preemergence): 0
Plant response rating, Corn (corn (Zea mays); Rate 125 g/ha, Postemergence): 2
Corn plant response rating (corn (Zea mays); Rate 125 g/ha, Preemergence): 0
Plant response rating, Corn (corn (Zea mays); Rate 250 g/ha, Postemergence): 3
Plant response rating, Corn (corn (Zea mays); Rate 250 g/ha, Preemergence): 0
Plant response rating, Corn (corn (Zea mays); Rate 500 g/ha, Postemergence): 3
Plant response rating, Corn (corn (Zea mays); Rate 500 g/ha, Preemergence): 2
Plant response rating, Crabgrass ([5]; Rate 62 g/ha, Postemergence): 2
Crabgrass plant response rating ([5]; Rate 62 g/ha, Preemergence): 4
Plant response rating, Crabgrass ([5]; Rate 125 g/ha, Postemergence): 3
Crabgrass plant response rating ([5]; Rate 125 g/ha, Preemergence): 4
Plant response rating, Crabgrass ([5]; Rate 250 g/ha, Postemergence): 3
Plant response rating, Crabgrass ([5]; Rate 250 g/ha, Preemergence): 8
Plant response rating, Crabgrass ([5]; Rate 500 g/ha, Postemergence): 3
Plant response rating, Crabgrass ([5]; Rate 500 g/ha, Preemergence): 10
Plant response rating, Giant foxtail ([6]; Rate 62 g/ha, Postemergence): 2
Giant foxtail plant response rating ([6]; Rate 62 g/ha, Preemergence): 5
Plant response rating, Giant foxtail ([6]; Rate 125 g/ha, Postemergence): 3
Giant foxtail plant response rating ([6]; Rate 125 g/ha, Preemergence): 7
Plant response rating, Giant foxtail ([6]; Rate 250 g/ha, Postemergence): 3
Plant response rating, Giant foxtail ([6]; Rate 250 g/ha, Preemergence): 9
Plant response rating, Giant foxtail ([6]; Rate 500 g/ha, Postemergence): 4
Plant response rating, Giant foxtail ([6]; Rate 500 g/ha, Preemergence): 9
Plant response rating, Morningglory ([7]; Rate 62 g/ha, Postemergence): 9
Morningglory plant response rating ([7]; Rate 62 g/ha, Preemergence): 4
Plant response rating, Morningglory ([7]; Rate 125 g/ha, Postemergence): 9
Morningglory plant response rating ([7]; Rate 125 g/ha, Preemergence): 6
Plant response rating, Morningglory ([7]; Rate 250 g/ha, Postemergence): 9
Plant response rating, Morningglory ([7]; Rate 250 g/ha, Preemergence): 10
Plant response rating, Morningglory ([7]; Rate 500 g/ha, Postemergence): 9
Plant response rating, Morningglory ([7]; Rate 500 g/ha, Preemergence): 10
Plant response rating, Redroot pigweed ([8]; Rate 62 g/ha, Postemergence): 9
Redroot pigweed plant response rating ([8]; Rate 62 g/ha, Preemergence): 7
Plant response rating, Redroot pigweed ([8]; Rate 125 g/ha, Postemergence): 9
Redroot pigweed plant response rating ([8]; Rate 125 g/ha, Preemergence): 9
Plant response rating, Redroot pigweed ([8]; Rate 250 g/ha, Postemergence): 9
Plant response rating, Redroot pigweed ([8]; Rate 250 g/ha, Preemergence): 9
Plant response rating, Redroot pigweed ([8]; Rate 500 g/ha, Postemergence): 9
Plant response rating, Redroot pigweed ([8]; Rate 500 g/ha, Preemergence): 9
Plant response rating, Rape (rape (Brassica napus); Rate 62 g/ha, Postemergence): 7
Rape plant response rating (rape (Brassica napus); Rate 62 g/ha, Preemergence): 0
Plant response rating, Rape (rape (Brassica napus); Rate 125 g/ha, Postemergence): 9
Rape plant response rating (rape (Brassica napus); Rate 125 g/ha, Preemergence): 5
Plant response rating, Rape (rape (Brassica napus); Rate 250 g/ha, Postemergence): 9
Plant response rating, Rape (rape (Brassica napus); Rate 250 g/ha, Preemergence): 6
Plant response rating, Rape (rape (Brassica napus); Rate 500 g/ha, Postemergence): 9
Plant response rating, Rape (rape (Brassica napus); Rate 500 g/ha, Preemergence): 6
Plant response rating, Soybean (soybean (Glycine max); Rate 62 g/ha, Postemergence): 3
Soybean plant response rating (soybean (Glycine max); Rate 62 g/ha, Preemergence): 0
Plant response rating, Soybean (soybean (Glycine max); Rate 125 g/ha, Postemergence): 5
Soybean plant response rating (soybean (Glycine max); Rate 125 g/ha, Preemergence): 2
Plant response rating, Soybean (soybean (Glycine max); Rate 250 g/ha, Postemergence): 5
Plant response rating, Soybean (soybean (Glycine max); Rate 250 g/ha, Preemergence): 3
Plant response rating, Soybean (soybean (Glycine max); Rate 500 g/ha, Postemergence): 5
Plant response rating, Soybean (soybean (Glycine max); Rate 500 g/ha, Preemergence): 3
Plant response rating, Sugarbeets ([9]; Rate 62 g/ha, Postemergence): 7
Sugarbeets plant response rating ([9]; Rate 62 g/ha, Preemergence): 6
Plant response rating, Sugarbeets ([9]; Rate 125 g/ha, Postemergence): 8
Sugarbeets plant response rating ([9]; Rate 125 g/ha, Preemergence): 8
Plant response rating, Sugarbeets ([9]; Rate 250 g/ha, Postemergence): 8
Plant response rating, Sugarbeets ([9]; Rate 250 g/ha, Preemergence): 10
Plant response rating, Sugarbeets ([9]; Rate 500 g/ha, Postemergence): 9
Plant response rating, Sugarbeets ([9]; Rate 500 g/ha, Preemergence): 10
Plant response rating, Velvetleaf ([10]; Rate 62 g/ha, Postemergence): 7
Velvetleaf plant response rating ([10]; Rate 62 g/ha, Preemergence): 3
Plant response rating, Velvetleaf ([10]; Rate 125 g/ha, Postemergence): 7
Velvetleaf plant response rating ([10]; Rate 125 g/ha, Preemergence): 4
Plant response rating, Velvetleaf ([10]; Rate 250 g/ha, Postemergence): 8
Plant response rating, Velvetleaf ([10]; Rate 250 g/ha, Preemergence): 4
Plant response rating, Velvetleaf ([10]; Rate 500 g/ha, Postemergence): 8
Plant response rating, Velvetleaf ([10]; Rate 500 g/ha, Preemergence): 4
Plant response rating, Wheat ([11]; Rate 62 g/ha, Postemergence): 3
Wheat plant response rating ([11]; Rate 62 g/ha, Preemergence): 0
Plant response rating, Wheat ([11]; Rate 125 g/ha, Postemergence): 3
Wheat plant response rating ([11]; Rate 125 g/ha, Preemergence): 0
Plant response rating, Wheat ([11]; Rate 250 g/ha, Postemergence): 3
Plant response rating, Wheat ([11]; Rate 250 g/ha, Preemergence): 0
Plant response rating, Wheat ([11]; Rate 500 g/ha, Postemergence): 4
Plant response rating, Wheat ([11]; Rate 500 g/ha, Preemergence): 0
